This is an account of results in ChEMBL document CHEMBL5380860, “Design, Synthesis, and Antitumor Activity of Potent and Selective EGFR L858R/T790M Inhibitors and Identification of a Combination Therapy to Overcome Acquired Resistance in Models of Non-small-cell Lung Cancer” (J Med Chem, 2023).

Calls of active or inactive are those of the source.

Series [1] has as its system A-431. The series is described as follows: Induction of apoptosis in human A-431 cells assessed as induction of PARP cleavage at 0.1 to 10 uM pretreated with compound for 4 hrs followed by incubation with EGF for 10 mins by western blot analysis. It is filed as toxicity, cell-based. To be noted: a-431, 4.167 h, dose 0.1-10 µM, time 250 min.
Series [2] deals with T1, Tyrosine-protein kinase Tec (Homo sapiens) (UniProt P42680).
T1 sequence (whole entry): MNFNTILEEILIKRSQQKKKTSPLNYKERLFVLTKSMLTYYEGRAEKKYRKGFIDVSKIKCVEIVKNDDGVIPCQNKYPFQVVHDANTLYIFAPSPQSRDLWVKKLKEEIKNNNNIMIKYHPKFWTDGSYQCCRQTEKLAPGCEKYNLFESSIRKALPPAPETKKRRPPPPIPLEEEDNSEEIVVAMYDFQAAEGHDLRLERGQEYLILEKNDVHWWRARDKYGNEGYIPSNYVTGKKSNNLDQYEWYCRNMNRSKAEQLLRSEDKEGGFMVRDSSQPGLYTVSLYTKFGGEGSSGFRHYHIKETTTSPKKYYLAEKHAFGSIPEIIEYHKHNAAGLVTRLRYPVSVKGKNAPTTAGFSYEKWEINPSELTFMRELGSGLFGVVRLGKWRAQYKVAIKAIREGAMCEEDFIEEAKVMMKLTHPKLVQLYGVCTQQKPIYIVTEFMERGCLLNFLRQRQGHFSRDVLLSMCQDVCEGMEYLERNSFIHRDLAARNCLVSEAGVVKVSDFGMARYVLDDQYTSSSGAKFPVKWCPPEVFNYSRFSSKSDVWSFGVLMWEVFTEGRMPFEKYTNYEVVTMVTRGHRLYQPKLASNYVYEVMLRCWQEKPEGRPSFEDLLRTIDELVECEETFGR
The series can be described thus: Inhibition of human wild type partial length TEC kinase (L341 to D620 residues) expressed in bacterial expression system assessed as residual activity at 1 uM by KINOMEscan analysis.

In series [3] the test system is A-431. The series is described as follows: Induction of apoptosis in human A-431 cells assessed as induction of caspase-3 cleavage at 0.1 to 10 uM pretreated with compound for 4 hrs followed by incubation with EGF for 10 mins by western blot analysis. The following applies: a-431, 4.167 h, dose 0.1-10 µM, time 250 min. The format is toxicity, cell-based. Background: A western blot detects proteins with antibodies after separation by electrophoresis.

Series [4] has as its system Epidermal growth factor receptor (Homo sapiens), P00533 [L858R,T790M]. The series is described as follows: Inhibition of EGFR L858R/T790M mutant in human NCI-H1975 cells assessed as inhibition of EGF-induced EGFR phosphorylation at Tyr1068 residue at 1 uM pretreated with compound for 4 hrs followed by incubation with EGF for 10 mins by western blot analysis. The format is cell-based. To be noted: time 250.0 min.

Series [5] deals with Epidermal growth factor receptor (Homo sapiens, UniProt P00533). The series is described as follows: Inhibition of wild type EGFR in human A549 cells assessed as inhibition of EGF-induced ERK-1/2 phosphorylation at 10 uM pretreated with compound for 4 hrs followed by incubation with EGF for 10 mins by western blot analysis. It is filed as toxicity, cell-based. To be noted: a549, 4.167 h, time 250 min.

Series [6] relates to Mus musculus. The series is described as follows: In vivo inhibition of EGFR L858R/T790M mutant in ip dosed NCI-H1975 cells xenografted BALB/c mouse assessed as inhibition of EGFR phosphorylation at Tyr1068 residue in tumor by immunoblot analysis. The format is functional, organism-based. To be noted: dose 5-20 mg/kg/day.
Series [7] in a line: Covalent binding affinity to L-cysteine assessed as increase in 619.2 Da mass at L-cysteine to compound concentration ratio of 1:4 incubated for 8 hrs by LC-MS analysis.
Series [8] concerns Epidermal growth factor receptor (Homo sapiens), P00533 [T790M]. The series is described as follows: Inhibition of human partial length EGFR (R669 to G1022 residues) T790M mutant expressed in mammalian expression system assessed as residual activity at 1 uM by KINOMEscan analysis.
The nature of series [9]: Toxicity in BALB/c mouse xenografted with human NCI-H1975 cells assessed as change in kidney morphological changes at 5 to 20 mg/kg/day, ip by hematoxylin-eosin staining based analysis. The format is organism-based. The following applies: in vivo, dose 5-20 mg/kg/day.
Series [10] in a line: Cmax in Sprague-Dawley rat at 1 mg/kg, iv by LC-MS analysis. The following applies: in vivo. It is filed as ADME, organism-based. On the set-up: dose 1 mg/kg, route iv.
Another series has as its system HCC827. The series can be described thus: Induction of apoptosis in human HCC827 cells assessed as induction of PARP cleavage pretreated with compound for 4 hrs followed by incubation with EGF for 10 mins by western blot analysis. To be noted: dose 0.1-10 µM, time 250.0 min. It is filed as functional, cell-based.
Series [11] addresses Epidermal growth factor receptor (Homo sapiens, UniProt P00533, L858R). The series is described as follows: Inhibition of human partial length EGFR (R669 to V1011 residues) L858R mutant expressed in bacterial expression system by KINOMEscan analysis.
A short description of series [12]: AUC (0 to infinity) in Sprague-Dawley rat at 1 mg/kg, iv by LC-MS analysis. On the set-up: dose 1 mg/kg, route iv. It is filed as ADME, organism-based. The following applies: in vivo.
The subject of series [13] is Mus musculus. The series is described as follows: In vivo inhibition of EGFR L858R/T790M mutant in ip dosed NCI-H1975 cells xenografted BALB/c mouse assessed as inhibition of AKT phosphorylation at Ser473 residue in tumor by immunoblot analysis. It is filed as functional, organism-based. The following applies: dose 5-20 mg/kg/day.
Series [14] is described as follows: GSH reactivity in PBS buffer assessed as half life by HPLC analysis. The format is ADME. To be noted: PBS buffer with GSH.
The test system of series [15] is Epidermal growth factor receptor (Homo sapiens), P00533 [L858R,T790M]. The series is described as follows: Inhibition of EGFR L858R/T790M mutant in N-(3-((6-Fluoro-2-((4-(4-methylpiperazin-1-yl)phenyl)amino)quinazolin-4-yl)amino)phenyl)acrylamide-resistant human NCI-H1975 cells assessed as inhibition of EGF-induced EGFR phosphorylation at Tyr1068 residue pretreated with compound for 4 hrs followed by incubation with EGF for 10 mins by western blot analysis. The format is cell-based. To be noted: time 250.0 min.

Series [16] has as its system NCI-H1975. The series can be described thus: Antitumor activity against human NCI-H1975 cells xenografted in BALB/c mouse assessed as tumor regression at 5 to 10 mg/kg/day, ip. It is filed as functional, organism-based. To be noted: dose 5-10 mg/kg/day. Background: In xenograft studies the graft and the host belong to different species.
The subject of series [17] is NCI-H1975. The series is described as follows: Antitumor activity against N-(3-((6-Fluoro-2-((4-(4-methylpiperazin-1-yl)phenyl)amino)quinazolin-4-yl)amino)phenyl)acrylamide-resistant human NCI-H1975 cells xenografted in BALB/c mouse assessed as inhibition of tumor weight at 20 mg/kg/day, ip in presence of ACK1 inhibitor, dasatinib. It is filed as functional, organism-based.

Series [18] relates to NCI-H1975. The series is described as follows: Induction of apoptosis in human NCI-H1975 cells assessed as increase in caspase-3/7 activity at 0.1 to 10 uM incubated for 24 hrs by Caspase-Glo reagent based luminescence analysis. The format is functional, cell-based. The following applies: dose 0.1-10 µM.
Series [19] can be described thus: Toxicity in BALB/c mouse xenografted with human NCI-H1975 cells assessed as change in lung morphological changes at 5 to 20 mg/kg/day, ip by hematoxylin-eosin staining based analysis. The format is organism-based. To be noted: in vivo, dose 5-20 mg/kg/day.
For series [20], the system named is NCI-H1975. The series can be described thus: Antiproliferative activity against N-(3-((6-Fluoro-2-((4-(4-methylpiperazin-1-yl)phenyl)amino)quinazolin-4-yl)amino)phenyl)acrylamide-resistant human NCI-H1975 cells assessed as reduction in cell viability at compound:AIM100 concentration ratio of 3:1 to 1:3 measured after 72 hrs in presence of ACK1 inhibitor, AIM100 by MTT assay. The format is functional, cell-based.

Take `C=CC(=O)Nc1cccc(Nc2nc(Nc3ccc(N4CCN(C)CC4)cc3)nc3ccc(F)cc23)c1`: the Activity result was “Non-Toxic” in the series with A-431 [1]; 14% in [2]; “Non-Toxic” with A-431 [3]; 3% in [8]; “Non-Toxic” in series [9]; “Dose-Dependent Effect” in the series on HCC827. Also, in [19], the Activity entry is “Non-Toxic”. The inhibition entry in [4] and in series [15] was “Active” each time. In series [5], the “inhibition (INH)” value is given as “Not Active”. Also, the inhibition result in the series with Mus musculus [6] and with Mus musculus [13] was “Dose-Dependent Effect” in each case. For the same molecule, the result (in series [7]; in the series with NCI-H1975 [16]; with NCI-H1975 [17]; with NCI-H1975 [18]; in the series on NCI-H1975 [20]) was Active. Further, the peak level in [10] (Cmax) was 650 ng/mL. For the same molecule, in series [11], it took 2.1 nM to reach half-maximal inhibition (IC50). Moreover, the AUC(0-inf) (as a rule, total exposure, with the tail of the curve extrapolated) in series [12] was 1050 ng·h/mL. The half-life (usually the time needed for the level to fall by half in the phase considered) in series [14] was 72.9 h.
